The results in this text go back to PubChem BioAssay (NCI).

The structures appear in SMILES notation.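 Growth conditions: 96-well plates. Treatment: test compound, 48 hours, 5 concentrations. Analysis: linear interpolation between bracketing concentrations; unreached endpoints set to highest concentration. GI50 = concentration required for 50% inhibition of growth. The concentration for full growth arrest is given as TGI.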 Bounds are passed on as bounds.

Some test systems named below: OVCAR-8 ovarian; MALME-3M melanoma; CCRF-CEM leukemia; SF-295 CNS; RPMI-8226 leukemia; NCI-H226 lung; NCI/ADR-RES ovarian; NCI-H23 lung; NCI-H522 lung; HOP-62 NSCLC.
Holding throughout (test): inhibition of tumour cell growth, NCI panel, 48 h

For `Cc1nc2ccc(Nc3nc(NCCN4CCOCC4)nc(Nc4ccc(F)cc4)n3)cc2n1Cc1ccccc1`, the GI50 was 3.28 µM in the assay on OVCAR-8 ovarian; 2.04 µM in the assay on MALME-3M melanoma; 2.27 µM in the assay with CCRF-CEM leukemia; 1.49 µM with SF-295 CNS; 1.74 µM in the assay with RPMI-8226 leukemia; 4.02 µM in the assay with NCI-H226 lung. Besides, the GI50 with NCI/ADR-RES ovarian is 3.79 µM; in the assay with NCI-H23 lung, 3.67 µM; in the assay with NCI-H522 lung, 2.92 µM; in the assay with HOP-62 NSCLC, 1.88 µM. Also, the TGI with OVCAR-8 ovarian is > 100 µM; with MALME-3M melanoma, 3.6 µM; in the assay on CCRF-CEM leukemia it was 8.04 µM; in the assay with SF-295 CNS, 2.93 µM; in the assay on RPMI-8226 leukemia, 4.62 µM; with NCI-H226 lung, 27.9 µM. Moreover, the TGI in the assay with NCI/ADR-RES ovarian turned out to be 40.1 µM; with NCI-H23 lung, 24.8 µM; in the assay with NCI-H522 lung it was 9.48 µM; in the assay on HOP-62 NSCLC it was 6.23 µM.
Consider `N=C(N=C(N)N)N1CCN(c2ccncc2)CC1`, for which the GI50 with OVCAR-8 ovarian is 483 µM; in the assay on MALME-3M melanoma, > 1000 µM; in the assay with CCRF-CEM leukemia, > 1000 µM; in the assay on SF-295 CNS it was > 1000 µM; in the assay on RPMI-8226 leukemia, > 1000 µM; in the assay with NCI-H226 lung it was > 1000 µM. Besides, the GI50 in the assay on NCI/ADR-RES ovarian, in the assay with NCI-H23 lung, with NCI-H522 lung and in the assay on HOP-62 NSCLC was > 1000 µM each time. The TGI in the assay on OVCAR-8 ovarian, in the assay with MALME-3M melanoma, with CCRF-CEM leukemia, with SF-295 CNS, in the assay with RPMI-8226 leukemia and with NCI-H226 lung was > 1000 µM throughout. The TGI in the assay with NCI/ADR-RES ovarian, in the assay on NCI-H23 lung, with NCI-H522 lung and in the assay on HOP-62 NSCLC was > 1000 µM throughout.
Consider `CCOC(=O)C(=Cc1ccccc1[N+](=O)[O-])C(=O)OCC`, for which the GI50 with OVCAR-8 ovarian is 2.87 µM; in the assay with MALME-3M melanoma it was 3.85 µM; in the assay on CCRF-CEM leukemia, 3.13 µM; with SF-295 CNS, 5.38 µM; with RPMI-8226 leukemia it was 3.69 µM; in the assay on NCI-H226 lung, 3.26 µM. Also, the GI50 in the assay on NCI/ADR-RES ovarian was 2.59 µM; in the assay with NCI-H23 lung, 3.35 µM; in the assay with NCI-H522 lung, 1.86 µM; in the assay on HOP-62 NSCLC, 3.48 µM. In addition, the TGI in the assay on OVCAR-8 ovarian came out at 11.3 µM; with MALME-3M melanoma it was 13.2 µM; in the assay with CCRF-CEM leukemia it was 20.6 µM; in the assay with SF-295 CNS it was 20.1 µM; in the assay on RPMI-8226 leukemia it was 18.3 µM; in the assay with NCI-H226 lung it was 12.8 µM. The TGI with NCI/ADR-RES ovarian is 7.8 µM; with NCI-H23 lung, 13.9 µM; in the assay with NCI-H522 lung it was 4.63 µM; in the assay with HOP-62 NSCLC, 12.9 µM.
Take `COc1ccc2c(Nc3ccc(NS(C)(=O)=O)cc3)c3ccccc3nc2c1`: the GI50 in the assay with OVCAR-8 ovarian is 0.432 µM; in the assay with MALME-3M melanoma it was 0.652 µM; with CCRF-CEM leukemia, 0.32 µM; in the assay on SF-295 CNS, 0.381 µM; in the assay on RPMI-8226 leukemia, 0.431 µM; with NCI-H226 lung, 0.229 µM. Moreover, the GI50 is 3.63 µM in the assay on NCI/ADR-RES ovarian, 0.475 µM in the assay with NCI-H23 lung, 0.304 µM in the assay on NCI-H522 lung and 0.429 µM in the assay on HOP-62 NSCLC. Besides, the TGI amounted to 5.26 µM with OVCAR-8 ovarian; 2.38 µM with MALME-3M melanoma; 6.03 µM in the assay with CCRF-CEM leukemia; 2.53 µM in the assay on SF-295 CNS; 4.09 µM in the assay on RPMI-8226 leukemia; 1.59 µM in the assay with NCI-H226 lung. Also, the TGI worked out at 28.6 µM with NCI/ADR-RES ovarian, 2.49 µM in the assay on NCI-H23 lung, 1.84 µM in the assay with NCI-H522 lung and 2.72 µM in the assay on HOP-62 NSCLC.
With `Cc1cc(C)c(C[N+](C)(C)C)c(C)c1C`, the GI50 was 0.328 µM in the assay with OVCAR-8 ovarian; 0.594 µM with MALME-3M melanoma; 0.201 µM in the assay on CCRF-CEM leukemia; 0.255 µM in the assay on SF-295 CNS; 0.588 µM in the assay with RPMI-8226 leukemia; 0.565 µM in the assay on NCI-H226 lung. The GI50 in the assay with NCI/ADR-RES ovarian was 0.475 µM; with NCI-H23 lung, 0.395 µM; in the assay on NCI-H522 lung, 0.208 µM; in the assay on HOP-62 NSCLC it was 0.323 µM. In addition, the TGI is > 41.6 µM with OVCAR-8 ovarian; 32.2 µM with MALME-3M melanoma; > 67.5 µM in the assay on CCRF-CEM leukemia; 7.25 µM with SF-295 CNS; 15.9 µM with RPMI-8226 leukemia; 11.9 µM in the assay with NCI-H226 lung. The TGI in the assay with NCI/ADR-RES ovarian worked out at 16.3 µM; in the assay with NCI-H23 lung, 12.3 µM; in the assay on NCI-H522 lung it was 2.61 µM; in the assay with HOP-62 NSCLC, 7.59 µM.
Turning to `OCC1OC(n2ccc3c(NO)ncnc32)C(O)C1O` (centres undefined), the GI50 in the assay with OVCAR-8 ovarian was 0.184 µM; with MALME-3M melanoma it was 0.117 µM; with CCRF-CEM leukemia it was 0.159 µM; in the assay with SF-295 CNS, 0.144 µM; with RPMI-8226 leukemia, 0.138 µM; in the assay with NCI-H226 lung, 0.251 µM. Moreover, the GI50 was 0.238 µM in the assay with NCI/ADR-RES ovarian, 0.214 µM in the assay with NCI-H23 lung, 0.188 µM in the assay on NCI-H522 lung and 0.219 µM in the assay with HOP-62 NSCLC. Moreover, the TGI in the assay on OVCAR-8 ovarian came to 1.94 µM; with MALME-3M melanoma it was 0.451 µM; in the assay with CCRF-CEM leukemia, 0.692 µM; with SF-295 CNS, 0.599 µM; in the assay with RPMI-8226 leukemia, 0.504 µM; with NCI/ADR-RES ovarian, 1.64 µM. For the same compound, the TGI with NCI-H23 lung worked out at 1.17 µM; in the assay on NCI-H522 lung, 0.718 µM; in the assay with HOP-62 NSCLC, 2.51 µM.
Take `COc1ccccc1NC(=O)n1nc(N)c2ccccc21`: the GI50 in the assay with OVCAR-8 ovarian is > 78.3 µM; in the assay with MALME-3M melanoma, > 100 µM; in the assay with CCRF-CEM leukemia, > 100 µM; in the assay with SF-295 CNS, 52.1 µM; in the assay on RPMI-8226 leukemia, 48.7 µM; in the assay with NCI-H226 lung it was > 74.7 µM. Further, the GI50 in the assay on NCI/ADR-RES ovarian is 87.4 µM; with NCI-H23 lung, > 100 µM; with NCI-H522 lung, 53.9 µM; with HOP-62 NSCLC, > 69.3 µM. The TGI in the assay on OVCAR-8 ovarian, in the assay with MALME-3M melanoma, with CCRF-CEM leukemia, in the assay with SF-295 CNS, in the assay on RPMI-8226 leukemia and in the assay with NCI-H226 lung was > 100 µM each time. Also, the TGI in the assay on NCI/ADR-RES ovarian, with NCI-H23 lung, with NCI-H522 lung and with HOP-62 NSCLC was > 100 µM each time.
